Calls of active or inactive are those of the source. The rule behind the calls is not given here.
Experiments:
Mus musculus [1] = assay: Anticonvulsant activity in albino CF1 mouse assessed as protection against subcutaneous metrazole-induced seizures at 30 mg/kg, ip after 4 hrs; assay type: functional, organism-based; parameters: dose 30 mg/kg
Mus musculus [2] = assay: Anticonvulsant activity in albino CF1 mouse assessed as protection against maximal electroshock-induced seizures at 100 mg/kg, ip after 2 hrs; assay type: functional, organism-based; parameters: dose 100 mg/kg
Mus musculus [3] = assay: Neurotoxicity in albino CF1 mouse assessed as minimal motor impairment at 100 mg/kg, ip after 4 hrs by rotarod test; assay type: toxicity, organism-based; parameters: dose 100 mg/kg, route intraperitoneal; details: in vivo
Mus musculus [4] = assay: Anticonvulsant activity in albino CF1 mouse assessed as protection against maximal electroshock-induced seizures at 300 mg/kg, ip after 0.5 hrs; assay type: functional, organism-based; parameters: dose 300 mg/kg
Mus musculus [5] = assay: Neurotoxicity in ip dosed albino CF1 mouse assessed as minimum dose required to cause toxicity after 4 hrs by rotarod test; assay type: organism-based; details: in vivo
Mus musculus [6] = assay: Anticonvulsant activity in albino CF1 mouse assessed as protection against maximal electroshock-induced seizures at 300 mg/kg, ip after 4 hrs; assay type: functional, organism-based; parameters: dose 300 mg/kg
Mus musculus [7] = assay: Neurotoxicity in albino CF1 mouse assessed as minimal motor impairment at 30 mg/kg, ip after 4 hrs by rotarod test; assay type: toxicity, organism-based; parameters: dose 30 mg/kg, route intraperitoneal; details: in vivo
Mus musculus [8] = assay: Neurotoxicity in albino CF1 mouse assessed as minimal motor impairment at 30 mg/kg, ip after 0.5 hrs by rotarod test; assay type: toxicity, organism-based; parameters: dose 30 mg/kg, route intraperitoneal; details: in vivo
Mus musculus [9] = assay: Neurotoxicity in albino CF1 mouse assessed as minimal motor impairment at 30 to 300 mg/kg, ip after 0.5 hrs by rotarod test; details: in vivo
Mus musculus [10] = assay: Anticonvulsant activity in albino CF1 mouse assessed as protection against subcutaneous metrazole-induced seizures at 100 mg/kg, ip after 0.5 hrs; assay type: functional, organism-based; parameters: dose 100 mg/kg
Mus musculus [11] = assay: Anticonvulsant activity against maximal electroshock-induced seizures in ip dosed albino CF1 mouse assessed as minimum effective dose after 4 hrs; assay type: functional; details: read-out: MED
Mus musculus [12] = assay: Anticonvulsant activity in albino CF1 mouse assessed as protection against subcutaneous metrazole-induced seizures at 300 mg/kg, ip after 0.5 hrs; assay type: functional, organism-based; parameters: dose 300 mg/kg
Mus musculus [13] = assay: Anticonvulsant activity in albino CF1 mouse assessed as protection against maximal electroshock-induced seizures at 30 mg/kg, ip after 4 hrs; assay type: functional, organism-based; parameters: dose 30 mg/kg
Mus musculus [14] = assay: Anticonvulsant activity against maximal electroshock-induced seizures in ip dosed albino CF1 mouse assessed as minimum effective dose after 0.5 hrs; assay type: functional; details: read-out: MED
Mus musculus [15] = assay: Anticonvulsant activity against subcutaneous metrazole-induced seizures in ip dosed albino CF1 mouse assessed as minimum effective dose after 0.5 hrs; assay type: functional; details: albino CF1, 0.5 h, read-out: MED
Mus musculus [16] = assay: Anticonvulsant activity in albino CF1 mouse assessed as protection against maximal electroshock-induced seizures at 100 mg/kg, ip after 0.5 hrs; assay type: functional, organism-based; parameters: dose 100 mg/kg
Mus musculus [17] = assay: Anticonvulsant activity in albino CF1 mouse assessed as protection against maximal electroshock-induced seizures at 30 mg/kg, ip after 0.5 hrs; assay type: functional, organism-based; parameters: dose 30 mg/kg
Mus musculus [18] = assay: Neurotoxicity in albino CF1 mouse assessed as minimal motor impairment at 100 mg/kg, ip after 0.5 hrs by rotarod test; assay type: toxicity, organism-based; parameters: dose 100 mg/kg, route intraperitoneal; details: in vivo
Mus musculus [19] = assay: Anticonvulsant activity in albino CF1 mouse assessed as protection against subcutaneous metrazole-induced seizures at 300 mg/kg, ip after 4 hrs; assay type: functional, organism-based; parameters: dose 300 mg/kg
Mus musculus [20] = assay: Neurotoxicity in albino CF1 mouse assessed as minimal motor impairment at 30 to 300 mg/kg, po after 4 hrs by rotarod test; assay type: toxicity, organism-based; parameters: dose 30-300 mg/kg, route oral; details: in vivo
Mus musculus [21] = assay: Neurotoxicity in albino CF1 mouse assessed as minimal motor impairment at 300 mg/kg, ip after 4 hrs by rotarod test; assay type: toxicity, organism-based; parameters: dose 300 mg/kg, route intraperitoneal; details: in vivo
Mus musculus [22] = assay: Neurotoxicity in ip dosed albino CF1 mouse assessed as minimum dose required to cause toxicity after 0.5 hrs by rotarod test; assay type: organism-based; details: in vivo
Mus musculus [23] = assay: Anticonvulsant activity in albino CF1 mouse assessed as protection against subcutaneous metrazole-induced seizures at 100 mg/kg, ip after 4 hrs; assay type: functional, organism-based; parameters: dose 100 mg/kg
Mus musculus [24] = assay: Anticonvulsant activity against subcutaneous metrazole-induced seizures in ip dosed albino CF1 mouse assessed as minimum effective dose after 4 hrs; assay type: functional; details: albino CF1, 4 h, read-out: MED
Mus musculus [25] = assay: Anticonvulsant activity in albino CF1 mouse assessed as protection against maximal electroshock-induced seizures at 100 mg/kg, ip after 4 hrs; assay type: functional, organism-based; parameters: dose 100 mg/kg
Mus musculus [26] = assay: Anticonvulsant activity in albino CF1 mouse assessed as protection against subcutaneous metrazole-induced seizures at 30 mg/kg, ip after 0.5 hrs; assay type: functional, organism-based; parameters: dose 30 mg/kg
Rattus norvegicus [27] = assay: Neurotoxicity in albino Sprague-Dawley rat assessed as minimal motor impairment at 30 mg/kg, po by rotarod test; assay type: toxicity, organism-based; parameters: dose 30 mg/kg, route oral; details: in vivo
Rattus norvegicus [28] = assay: Anticonvulsant activity in albino Sprague-Dawley rat assessed as protection against maximal electroshock-induced seizures at 30 mg/kg, po after 1 hr; assay type: functional, organism-based; parameters: dose 30 mg/kg
Mus musculus [29] = assay: Neurotoxicity in albino CF1 mouse assessed as minimal motor impairment at 300 mg/kg, ip after 0.5 hrs by rotarod test; assay type: toxicity, organism-based; parameters: dose 300 mg/kg, route intraperitoneal; details: in vivo
Rattus norvegicus [30] = assay: Anticonvulsant activity in albino Sprague-Dawley rat assessed as protection against maximal electroshock-induced seizures at 30 mg/kg, po after 4 hrs; assay type: functional, organism-based; parameters: dose 30 mg/kg
Rattus norvegicus [31] = assay: Anticonvulsant activity in albino Sprague-Dawley rat assessed as protection against maximal electroshock-induced seizures at 30 mg/kg, po after 2 hrs; assay type: functional, organism-based; parameters: dose 30 mg/kg
Rattus norvegicus [32] = assay: Anticonvulsant activity in albino Sprague-Dawley rat assessed as protection against maximal electroshock-induced seizures at 30 mg/kg, po after 0.5 hrs; assay type: functional, organism-based; parameters: dose 30 mg/kg
Rattus norvegicus [33] = assay: Anticonvulsant activity in albino Sprague-Dawley rat assessed as protection against maximal electroshock-induced seizures at 30 mg/kg, po after 0.25 hrs; assay type: functional, organism-based; parameters: dose 30 mg/kg

| Compound | Activity (Mus musculus [1]) | Activity (Mus musculus [3]) | Activity (Mus musculus [4]) | MED (Mus musculus [5]) [mg/kg] | Activity (Mus musculus [6]) | Activity (Mus musculus [7]) | Activity (Mus musculus [8]) | Activity (Mus musculus [9]) | Activity (Mus musculus [10]) | minimal effective dose (Mus musculus [11]) [mg/kg] | Activity (Mus musculus [12]) | Activity (Mus musculus [13]) | minimal effective dose (Mus musculus [14]) [mg/kg] | minimal effective dose (Mus musculus [15]) [mg/kg] | Activity (Mus musculus [17]) | Activity (Mus musculus [18]) | Activity (Mus musculus [19]) | Activity (Mus musculus [21]) | MED (Mus musculus [22]) [mg/kg] | Activity (Mus musculus [23]) | other results |
| --- | --- | --- | --- | --- | --- | --- | --- | --- | --- | --- | --- | --- | --- | --- | --- | --- | --- | --- | --- | --- | --- |
| FC(F)(F)c1cccc(-c2nc(-c3ccccc3)c[nH]2)c1 | inactive | Non-toxic | inactive | > 300 | Active | Non-toxic | Non-toxic | Non-toxic | inactive | 100 | inactive | inactive | > 300 | > 300 | inactive | Non-toxic | inactive | Non-toxic | 100 | inactive | Activity (Mus musculus [2]): inactive; Activity (Mus musculus [16]): inactive; Activity (Mus musculus [20]): Non-toxic; minimal effective dose (Mus musculus [24]): > 300 mg/kg; Activity (Mus musculus [25]): inactive; Activity (Mus musculus [26]): inactive |
| COc1ccc(-c2c[nH]c(-c3ccccc3)n2)cc1 | inactive | Non-toxic | Active | 100 | Active | Non-toxic | Non-toxic | Non-toxic | inactive | 100 | Active | inactive | > 30 | 100 | inactive | Non-toxic | inactive | Toxic | 100 | inactive | Activity (Rattus norvegicus [27]): Non-toxic; Activity (Rattus norvegicus [28]): inactive; Activity (Mus musculus [29]): Toxic; Activity (Mus musculus [16]): Active; Activity (Rattus norvegicus [30]): inactive; Activity (Rattus norvegicus [31]): inactive; Activity (Rattus norvegicus [32]): inactive; Activity (Rattus norvegicus [33]): inactive; minimal effective dose (Mus musculus [24]): > 300 mg/kg; Activity (Mus musculus [26]): inactive |
| O=[N+]([O-])c1cccc(-c2c[nH]c(-c3ccccc3)n2)c1 | inactive | Non-toxic | Active | > 300 | Active | Non-toxic | Non-toxic | Non-toxic | inactive | 100 | inactive | inactive | 100 | > 300 | inactive | Non-toxic | inactive | Non-toxic | > 300 | inactive | Activity (Rattus norvegicus [27]): Non-toxic; Activity (Rattus norvegicus [28]): inactive; Activity (Mus musculus [29]): Non-toxic; Activity (Rattus norvegicus [30]): inactive; Activity (Rattus norvegicus [31]): inactive; Activity (Mus musculus [20]): Non-toxic; Activity (Rattus norvegicus [32]): inactive; Activity (Rattus norvegicus [33]): inactive; minimal effective dose (Mus musculus [24]): > 300 mg/kg; Activity (Mus musculus [25]): inactive; Activity (Mus musculus [26]): inactive |
| O=[N+]([O-])c1cccc(-c2nc(-c3ccccc3)c[nH]2)c1 | inactive | Non-toxic | Active | > 300 | Active | Non-toxic | Non-toxic | Non-toxic | inactive | 100 | inactive | inactive | 100 | > 300 | inactive | Non-toxic | inactive | Non-toxic | > 300 | inactive | Activity (Rattus norvegicus [27]): Non-toxic; Activity (Rattus norvegicus [28]): inactive; Activity (Mus musculus [29]): Non-toxic; Activity (Rattus norvegicus [30]): inactive; Activity (Rattus norvegicus [31]): inactive; Activity (Mus musculus [20]): Non-toxic; Activity (Rattus norvegicus [32]): inactive; Activity (Rattus norvegicus [33]): inactive; minimal effective dose (Mus musculus [24]): > 300 mg/kg; Activity (Mus musculus [25]): inactive; Activity (Mus musculus [26]): inactive |
| Clc1ccc(-c2c[nH]c(-c3ccccc3)n2)cc1 | inactive | Non-toxic | Active | > 300 | Active | Non-toxic | Non-toxic | Non-toxic | inactive | 100 | inactive | inactive | > 30 | > 300 | inactive | Non-toxic | inactive | Non-toxic | 100 | inactive | Activity (Rattus norvegicus [27]): Non-toxic; Activity (Rattus norvegicus [28]): inactive; Activity (Mus musculus [16]): Active; Activity (Rattus norvegicus [30]): inactive; Activity (Rattus norvegicus [31]): inactive; Activity (Mus musculus [20]): Non-toxic; Activity (Rattus norvegicus [32]): inactive; Activity (Rattus norvegicus [33]): inactive; minimal effective dose (Mus musculus [24]): > 300 mg/kg; Activity (Mus musculus [25]): inactive; Activity (Mus musculus [26]): inactive |

Source: ChEMBL document CHEMBL1275354, “Anticonvulsant activity of 2,4(1H)-diarylimidazoles in mice and rats acute seizure models” (Bioorg Med Chem, 2010)
